In patent US20260117171A1, “Human Pregnancy on a Chip for Normal and Disease Biomarker Discovery and Preclinical Trials” (Board of Regents, The University of Texas System, priority 2023, published 2026):

System: CD45+ cells
Experiment: CD45+ cell trafficking between maternal/fetal compartments in the OOC device in response to an infectious stimulus
Assay type: cell-based, human
Details: LPS as infectious stimulus, preliminary study
Protocol: Immune cell migration and phenotyping by Cytometry by Time Of Flight (CyTOF) analysis: Preliminary CD45+ cell trafficking studies between the maternal/fetal compartments in the OOC device in response to an infectious stimulus (lipopolysaccharide [LPS]), to mimic bacterial infection, was conducted. In this model, LPS increased CD45+ cell influx into the fetal side and increased inflammation. Similar experiments can be repeated, and cell marker specificity can be tested through flow cytometry and immunocytochemistry^178. To study immunophenotypic changes associated with migrating immune cells, a multiplex tissue imaging technology can be used, e.g., Imaging Mass Cytometry (IMC) at an unprecedented resolution^179. IMC allows highly multiplexed, metal-based detection of 30 different protein markers at the same time, and enables high-dimensional, single-cell analysis of complex cell types without any background noise^180-184 (see Table 3 for a list of key/exemplary antibodies). For IMC, the top PDMS part can be removed so that fixed/attached cells stay on the histological glass slides on which the OOC device is built. IMC technology can be introduced to the OOC field, which allows for the analysis of cellular-level changes in OOC.

In the case of lipopolysaccharide [LPS], the “CD45+ cell influx into the fetal side” value is reported as “increased” and the inflammation is reported as “increased”.
